According to patent US20230094176A1, “COMPOUNDS AND METHODS FOR IMPROVING IMPAIRED ENDOGENOUS FIBRINOLYSIS USING HISTONE DEACETYLASE INHIBITORS” (Cereno Scientific AB, priority 2011, published 2023):
Read-outs that look alike come from different tables or passages of the source.

Legend:
[1] = tested on: local release of t-PA from the endothelium; test: Intermediate endpoint study: in vivo t-PA release in man (perfused-forearm model, Substance P); set-up: species or system human; conditions: for increase of total amount of t-PA released (AUC): patients with stable angina pectoris, 2 weeks, daily oral dose: Vorinostat 10 mg, Belinostat 65 mg, Givinostat 2 mg, Panobinostat 0.5 mg, PCI-24781 2 mg, JNJ-26481585 0.2 mg, Mocetinostat 2 mg, SB939 0.4 mg, CXD101 10 mg
Method: (§1) The study comprises 16 patients with stable angina pectoris. Patients are investigated before and after oral treatment with 10 mg Vorinostat (Zolinza®, Merck & Co., Inc, NJ, USA) daily for 2 weeks. The study has a randomized, cross-over design and t-PA release capacity is investigated before and after treatment, with each individual serving as his/her own control
The capacity for t-PA release is investigated in the perfused-forearm model that we have developed, which is the only method that permits a direct measurement of the local release of t-PA from the endothelium (Hrafnkelsdottir, T., et al. Lancet 352, 1597-1598 (1998), Wall, U., et al. Blood 91, 529-537 (1998)). Since t-PA has a rapid hepatic clearance, it is impossible to infer endothelial release rates from plasma levels obtained from standard venous samples. With the invasive model, however, net forearm t-PA release rates are calculated from arterio-venous concentration gradients of t-PA after correction for forearm plasma flow. Acute t-PA release responses are induced by intra-arterial infusions of Substance P (Bachem, Bubendorf, Switzerland), and the amount and protein secretion profile is used as a measure of t-PA release capacity.
as §1, with “pectoris and elevated serum levels of high-sensitivity C-reactive protein (hs-CRP) >3 mg/L.” for “pectoris.”, “100” for “10”, “valproic acid twice” for “Vorinostat (Zolinza®, Merck & Co., Inc, NJ, USA)”, “control.” for “control”
The capacity for t-PA release is investigated in the perfused-forearm model that we have developed, which is the only method that permit a direct measurement of the local release of t-PA from the endothelium (Hrafnkelsdottir, T., et al. Lancet 352, 1597-1598 (1998), Wall, U., et al. Blood 91, 529-537 (1998). Since t-PA has a rapid hepatic clearance, it is impossible to infer endothelial release rates from plasma levels obtained from standard venous samples.
With the invasive model, however, net forearm t-PA release rates are calculated from arterio-venous concentration gradients of t-PA after correction for forearm plasma flow. Acute t-PA release responses are induced by intra-arterial infusions of Substance P (Bachem, Bubendorf, Switzerland), and the amount and protein secretion profile is used as a measure of t-PA release capacity.

[2] = tested on: t-PA mRNA expression in human umbilical vein endothelial cells (HUVECs); test: In vitro dose response: t-PA mRNA (and protein) expression in HUVEC after 24 h; type: cell-based
Method: Human umbilical vein endothelial cells (HUVECs) were prepared by collagenase treatment of fresh umbilical cords (Jaffe, E. A., et al. J Clin Invest 52, 2745-2756 (1973)) obtained from the maternity ward of the Sahlgrenska University hospital, Gotheburg, Sweden. Cells were cultured in EGM-2 medium (Lonza, Basel, Switzerland) and all experiments were performed in passage 1 of subcultivation. Confluent HUVECs were exposed to 10 nM-10 μM of Vorinostat (Selleck Chemicals, Houston, Tex., USA) in complete medium for 24 h. After 24 h, cells and conditioned media were harvested.
(§2) Total RNA was prepared using RNeasy Mini RNA kit (Qiagen, Hilden, Germany) and genomic DNA was removed using RNase-free DNase I set (Qiagen). Levels of t-PA mRNA were analyzed with real-time RT-PCR, performed on an Applied Biosystems 7500 Fast Real-Time PCR System using cDNA and Taqman reagents obtained from Applied Biosystems (Foster City, Calif., USA). Hypoxanthine phosphoribosyl transferase (HPRT, Assay number Hs99999909_m1, Applied Biosystems) was used as endogenous internal standard.
(§3) Endothelial cells in culture are known to constitutively secrete the majority of synthesized t-PA making conditioned media a suitable source for quantification of t-PA protein. Conditioned medium from cell cultures was collected, centrifuged (10 000×g, 10 min, 4° C.) to remove cell debris, transferred to fresh tubes and stored at −70° C. Concentrations of t-PA antigen in conditioned media were determined using the commercially available TriniLize t-PA antigen ELISA (Trinity Biotech, Bray, Ireland) according to manufacturer's protocol.

[3] = tested on: TNF-alpha suppressed t-PA production in HUVECs; test: Counter-acting TNF-alpha (0.1 ng/ml) suppression of t-PA in HUVEC; type: cell-based, human; conditions: for concentration completely normalizing TNF-alpha suppressed t-PA production / concentration partly reversing TNF-alpha suppression of t-PA production: TNF-alpha 0.1 ng/ml 48 h, compound last 24 h
Method: Human umbilical vein endothelial cells (HUVECs) were prepared and cultured as described in Example 1. Confluent HUVECs were exposed to low concentrations of TNF-alpha (0.1 ng/ml) (Sigma-Aldrich) for 24 h. Thereafter, medium was replaced by fresh EGM-2 containing TNF-alpha and low concentrations of belinostat (10 nM to 300 nM) and incubated for 24 h. After 24 h, cells and conditioned media were harvested. Total RNA was prepared and RNA and secreted protein quantified as in Example 1.
We have previously shown that proinflammatory cytokines e.g. TNF-alpha and IL-1b suppress t-PA production in endothelial cells. We then investigated if VPA could reverse a TNF-alpha suppressed t-PA response. Human umbilical vein endothelial cells (HUVECs) were prepared by collagenase treatment of fresh umbilical cords (Jaffe, E. A., et al. J Clin Invest 52, 2745-2756 (1973)) obtained from the maternity ward of the Sahlgrenska University hospital, Gothenburg, Sweden. Cells were cultured in EGM-2 medium (Lonza, Basel, Switzerland) and all experiments were performed in passage 1 of subcultivation. Confluent HUVECs were pre-treated with 0.1 ng/ml human recombinant TNF-alpha (Sigma-Aldrich) for 24 hours then exposed to optimal concentrations VPA in complete medium. After incubation with the VPA and TNF-alpha for an additional 24 hours, cells and conditioned media were harvested.
as §2
as §3, with “collected, centrifuged (10,000×g, 10 min,” for “collected, centrifuged (10 000×g, 10 min,”, “according to the manufacturer's protocol.” for “according to manufacturer's protocol.”

[4] = HUVEC, present-tense Examples 12-18

| SMILES | increase of total amount of t-PA released (AUC) [1] | concentration at which a significant increase of t-PA mRNA levels was seen [2] [nM] | concentration of maximal effect on t-PA expression [2] | increase of t-PA expression at maximal effect [2] | concentration completely normalizing TNF-alpha suppressed t-PA production ([3]; HUVEC) [nM] | concentration partly reversing TNF-alpha suppression of t-PA production ([3]; HUVEC) [nM] | concentrations needed to off-set the inhibition of TNF-alpha on t-PA expression ([3]; TNF-alpha treated endothelium) [µM] | concentration at which a significant increase of t-PA mRNA levels is seen ([2]; present-tense Examples 3-9) [nM] | concentration of maximal effect on t-PA expression ([2]; present-tense Examples 3-9) | increase of t-PA expression at maximal effect ([2]; present-tense Examples 3-9) | concentration completely normalizing TNF-alpha suppressed t-PA production [3, 4] [nM] | concentration partly reversing TNF-alpha suppression of t-PA production [3, 4] [nM] | increase of total amount of t-PA released ([1]; stable angina pectoris and hs-CRP >3 mg/L, 100 mg valproic acid orally twice daily for 2 weeks) | concentration achieving complete normalization of TNF-alpha suppressed t-PA mRNA ([3]; HUVEC, TNF-alpha 0.1 ng/ml, VPA additional 24 h) [mM] | concentrations needed to reverse the effect of TNF-alpha on t-PA expression ([3]; TNF-suppressed cells) |
| --- | --- | --- | --- | --- | --- | --- | --- | --- | --- | --- | --- | --- | --- | --- | --- |
| O=C(/C=C/c1cccc(S(=O)(=O)Nc2ccccc2)c1)NO [Belinostat] | approximately 50% | 10 | around 3 μM | approximately 10 times | 200 | 50 | 0.05 to 0.2 |  |  |  |  |  |  |  |  |
| Cc1nn(C)cc1CN1CCC(c2ccc(C(=O)Nc3ccccc3N)cc2)CC1 [CXD101] | approximately 50% |  |  |  |  |  |  | 10 | around 3 μM | approximately 10 times | 300 | 10 |  |  |  |
| CCN(CC)Cc1ccc2cc(COC(=O)Nc3ccc(C(=O)NO)cc3)ccc2c1.Cl [Givinostat] | approximately 50% | 30 | 0.3 µM | 10 times |  |  |  | 10 | around 0.3 μM | approximately 10 times | 100 | 30 |  |  |  |
| Cn1cc(CNCC2CCN(c3ncc(C(=O)NO)cn3)CC2)c2ccccc21 [JNJ-26481585, N-hydroxy-2-(4-((((1-methyl-1H-indol-3-yl)methyl)amino)methyl)piperidin-1-yl)pyrimidine-5-carboxamide] | approximately 50% | 3 | around 30 nM | approximately 6 times |  |  |  | 1 | around 30 nM | approximately 10 times | 5 | 1 |  |  |  |
| Nc1ccccc1NC(=O)c1ccc(CNc2nccc(-c3cccnc3)n2)cc1 [Mocetinostat] | approximately 50% | 100 | around 3 μM | approximately 15 times |  |  |  | 10 | around 3 μM | approximately 10 times | 300 | 10 |  |  |  |
| CN(C)Cc1c(C(=O)NCCOc2ccc(C(=O)NO)cc2)oc2ccccc12 [PCI-24781, 3-(dimethylaminomethyl)-N-[2-[4-(hydroxycarbamoyl)phenoxy]ethyl]-1-benzofuran-2-carboxamide] | approximately 50% | 100 | around 1 μM | approximately 6 times |  |  |  | 1 | around 0.3 μM | approximately 10 times | 200 | 10 |  |  |  |
| CCCC(CCC)C(=O)O [VPA, valproic acid] |  |  |  |  |  |  |  |  |  |  |  |  | approximately 50% | 0.35 | below 0.35 mM |
| O=C(CCCCCCC(=O)Nc1ccccc1)NO [Vorinostat] | approximately 50% | 50 | around 3 μM | approximately 7 times | 300 | 50 |  |  |  |  |  |  |  |  |  |
